Experimental findings from patent US9212163B2, “Pesticidal compositions and processes related thereto” (Dow AgroSciences LLC, priority 2012, dated 2015) are described below.

This assay relates to Beet Armyworm (BAW) (Spodoptera exigua). As to the kind of experiment: Bioassay on Beet Armyworm (BAW), 128-well diet tray assay. The class given is in vivo. To be noted: Table 3: Assay Results Part 1. How it is done: Certain molecules disclosed in this document were tested against BAW, CEW and CL using procedures described in the following examples. In the reporting of the results, the “BAW & CEW & CL Rating Table” was used (See Table Section).
Bioassays on BAW (Spodoptera exigua)
Bioassays on BAW were conducted using a 128-well diet tray assay. One to five second instar BAW larvae were placed in each well (3 mL) of the diet tray that had been previously filled with 1 mL of artificial diet to which 50 μg/cm^2 of the test compound (dissolved in 50 μL of 90:10 acetone-water mixture) had been applied (to each of eight wells) and then allowed to dry. Trays were covered with a clear self-adhesive cover, and held at 25° C., 14:10 light-dark for five to seven days. Percent mortality was recorded for the larvae in each well; activity in the eight wells was then averaged. The results are indicated in the tables entitled “Table 3: Assay Results Part 1” and “Table 4: Assay Results Part 2” (See Table Section).
On to `O=C(NCc1ccc(C(F)(F)F)nc1)c1ccc(/C=C/C(c2cc(Cl)c(Cl)c(Cl)c2)C(F)(F)F)cc1Br` (centres unmarked) [AC75], for which the “BAW Rating” value is “A (50-100)”.

`O=C(NC1CSC1)c1ccc(/C=C/C(c2cc(Cl)c(Cl)c(Cl)c2)C(F)(F)F)cc1Cl` (centres unmarked) [AC29]: the “BAW Rating” value is listed as “A (50-100)”.

Take `CC(C)(C)OC(=O)CNC(=O)c1ccc(/C=C/C(c2cc(Cl)c(Cl)c(Cl)c2)C(F)(F)F)cc1Br` (centres unmarked) [AC58]: the “BAW Rating” value is listed as “A (50-100)”.

As to `Cc1cc(/C=C\C(c2cc(Cl)cc(Cl)c2)C(F)(F)F)ccc1C(=O)NCC(=O)NC1CC1` (centres unmarked) [AC93], the “BAW Rating” value is reported as “A (50-100)”.

Take `Cc1cc(/C=C/C(c2cc(Cl)c(Cl)c(Cl)c2)C(F)(F)F)cc(C#N)c1-n1cncn1` (centres unmarked) [DC45]: the “BAW Rating” value is on record as “A (50-100)”.

Consider `Cc1cc(/C=C/C(c2cc(Cl)cc(Cl)c2)C(F)(F)F)ccc1C(=O)NCc1cnccn1` (centres unmarked) [AC43], for which the “BAW Rating” value was “A (50-100)”.

Take `Cc1cc(/C=C/C(c2cc(Cl)cc(Cl)c2)C(F)(F)F)ccc1C(=O)NC1CS(=O)(=O)C1` (centres unmarked) [AC13]: the “BAW Rating” value is reported as “A (50-100)”.

In the case of `Cc1cc(/C=C/C(c2cc(Cl)cc(Cl)c2)C(F)(F)F)ccc1C(=O)NCc1nccn1C` (centres unmarked) [AC50], the “BAW Rating” value is given as “A (50-100)”.

With `C=CCNC(=O)CNC(=O)c1ccc(/C=C/C(c2cc(Cl)c(Cl)c(Cl)c2)C(F)(F)F)cc1Br` (centres unmarked) [AC111], the “BAW Rating” value is reported as “A (50-100)”.

For `O=C(NCc1ccc(Cl)nc1)c1ccc(/C=C/C(c2cc(Cl)c(F)c(Cl)c2)C(F)(F)F)cc1F` (centres unmarked) [AC65], the “BAW Rating” value is “A (50-100)”.

Take `N#Cc1cc(/C=C/C(c2cc(Cl)cc(Cl)c2)C(F)(F)F)ccc1-n1cnc([N+](=O)[O-])n1` (centres unmarked) [DC37]: the “BAW Rating” value was “A (50-100)”.

For `O=C(NCc1ccc(/C=C/C(c2cc(Cl)c(Cl)c(Cl)c2)C(F)(F)F)cc1Cl)C1CC1` (centres unmarked) [CC11], the “BAW Rating” value is on record as “A (50-100)”.

Turning to `CONC(=O)CNC(=O)c1ccc(/C=C/C(c2cc(Cl)c(Cl)c(Cl)c2)C(F)(F)F)cc1Br` (centres unmarked) [AC110], the “BAW Rating” value was “A (50-100)”.

For the molecule `Cc1cc(/C=C/C(c2cc(Cl)cc(Cl)c2)C(F)(F)F)ccc1C(=O)NCC(=O)NC1CSC1` (centres unmarked) [AC41], the “BAW Rating” value is on record as “A (50-100)”.

Take `N#Cc1cc(/C=C\C(c2cc(Cl)c(F)c(Cl)c2)C(F)(F)F)ccc1-n1cncn1` (centres unmarked) [DC46]: the “BAW Rating” value is “A (50-100)”.

Turning to `O=C(CNC(=O)c1ccc(/C=C/C(c2cc(Cl)c(Cl)c(Cl)c2)C(F)(F)F)cc1Br)NCC(F)(F)F` (centres unmarked) [AC66], the “BAW Rating” value is on record as “A (50-100)”.

`Cc1cc(/C=C/C(c2cc(Cl)c(F)c(Cl)c2)C(F)(F)F)ccc1C(=O)NC1CCOCC1` (centres unmarked) [AC52]: the “BAW Rating” value is listed as “A (50-100)”.

As for `FC(F)(F)CNC(=S)CNC(=S)c1ccc(/C=C/C(c2cc(Cl)c(Cl)c(Cl)c2)C(F)(F)F)cc1Br` (centres unmarked) [AC90, (E)-2-Bromo-N-(2-thioxo-2-((2,2,2-trifluoroethyl)amino)ethyl)-4-(4,4,4-trifluoro-3-(3,4,5-trichlorophenyl)but-1-en-1-yl)benzothioamide], the “BAW Rating” value was “A (50-100)”.

`O=C(NCc1ncc(/C=C/C(c2cc(Cl)c(Cl)c(Cl)c2)C(F)(F)F)cc1Cl)C1CC1` (centres unmarked) [CC45]: the “BAW Rating” value was “A (50-100)”.

Take `N#Cc1cc(/C=C/C(c2cc(Cl)c(Cl)c(Cl)c2)C(F)(F)F)ccc1-n1cnc([N+](=O)[O-])n1` (centres unmarked) [DC40, (E)-2-(3-Nitro-1H-1,2,4-triazol-1-yl)-5-(4,4,4-trifluoro-3-(3,4,5-trichlorophenyl)but-1-en-1-yl)benzonitrile]: the “BAW Rating” value is “A (50-100)”.

With `Cc1cc(/C=C/C(c2cc(Cl)cc(Cl)c2)C(F)(F)F)ccc1C(=O)NCC1CCCO1` (centres unmarked) [AC118], the “BAW Rating” value is reported as “A (50-100)”.

Take `CNc1cc(/C=C/C(c2cc(Cl)cc(Cl)c2)C(F)(F)F)ccc1-n1cncn1` (centres unmarked) [DC57, (E)-5-(3-(3,5-Dichlorophenyl)-4,4,4-trifluorobut-1-en-1-yl)-N-methyl-2-(1H-1,2,4-triazol-1-yl)aniline]: the “BAW Rating” value is “A (50-100)”.

As for `O=C(CC(F)(F)F)NC1CCc2cc(/C=C/C(c3cc(Cl)c(F)c(Cl)c3)C(F)(F)F)ccc21` (centres unmarked) [BC8], the “BAW Rating” value is on record as “A (50-100)”.

For `O=C(NCc1ccc(Cl)nc1)c1ccc(/C=C/C(c2cc(Cl)c(Cl)c(Cl)c2)C(F)(F)F)cc1Br` (centres unmarked) [AC31], the “BAW Rating” value was “A (50-100)”.

Turning to `O=C(CNC(=S)c1ccc(/C=C/C(c2cc(Cl)c(Cl)c(Cl)c2)C(F)(F)F)cc1Br)NCC(F)(F)F` (centres unmarked) [AC91, (E)-2-(2-Bromo-4-(4,4,4-trifluoro-3-(3,4,5-trichlorophenyl)but-1-en-1-yl)phenylthioamido)-N-(2,2,2-trifluoroethyl)acetamide], the “BAW Rating” value is recorded as “A (50-100)”.

Turning to `O=C(CNC(=O)c1ccc(/C=C/C(c2cc(Cl)c(F)c(Cl)c2)C(F)(F)F)cc1[N+](=O)[O-])NCC(F)(F)F` (centres unmarked) [AC98], the “BAW Rating” value was “A (50-100)”.

Regarding `O=C(NC1CCCc2cc(/C=C/C(c3cc(Cl)c(Cl)c(Cl)c3)C(F)(F)F)ccc21)C1CC1` (centres unmarked) [BC7], the “BAW Rating” value was “A (50-100)”.

Consider `O=C(NC1CSC1)c1ccc(/C=C/C(c2cc(Cl)c(Cl)c(Cl)c2)C(F)(F)F)cc1Br` (centres unmarked) [AC32], for which the “BAW Rating” value is recorded as “A (50-100)”.

For `Cc1cc(/C=C/C(c2cc(Cl)cc(Cl)c2)C(F)(F)F)ccc1C(=O)N(C)Cc1ccc(Cl)nc1` (centres unmarked) [AC117], the “BAW Rating” value was “A (50-100)”.

With `O=C(NC1CCc2cc(/C=C/C(c3cc(Cl)c(Cl)c(Cl)c3)C(F)(F)F)ccc21)C1CC1` (centres unmarked) [BC6], the “BAW Rating” value was “A (50-100)”.

For the molecule `CCc1cc(/C=C/C(c2cc(Cl)c(F)c(Cl)c2)C(F)(F)F)ccc1C(=O)NCC(=O)NCC(F)(F)F` (centres unmarked) [AC80], the “BAW Rating” value was “A (50-100)”.

Regarding `FC(F)(F)C(/C=C/c1ccc(-n2cncn2)cc1)c1ccc(Cl)c(Cl)c1` (centres unmarked) [DC12], the “BAW Rating” value is reported as “A (50-100)”.

With `N#CCN1CCC(NC(=O)c2ccc(/C=C/C(c3cc(Cl)c(Cl)c(Cl)c3)C(F)(F)F)cc2Br)CC1` (centres unmarked) [AC107], the “BAW Rating” value is “B (More than 0-Less than 50)”.

In the case of `O=C(CC(F)(F)F)NCc1ccc(/C=C/C(c2cc(Cl)c(Cl)c(Cl)c2)C(F)(F)F)cc1` (centres unmarked) [CC6], the “BAW Rating” value is “A (50-100)”.

Consider `CCNC(=O)NCc1ccc(/C=C/C(c2cc(Cl)c(Cl)c(Cl)c2)C(F)(F)F)cc1C(F)(F)F` (centres unmarked) [CC32], for which the “BAW Rating” value is given as “A (50-100)”.

Turning to `O=C(NC1CCN(C(=O)CC(F)(F)F)CC1)c1ccc(/C=C/C(c2cc(Cl)c(Cl)c(Cl)c2)C(F)(F)F)cc1Br` (centres unmarked) [AC104, (E)-2-Bromo-4-(4,4,4-trifluoro-3-(3,4,5-trichlorophenyl)but-1-en-1-yl)-N-(1-(3,3,3-trifluoropropanoyl)piperidin-4-yl)benzamide], the “BAW Rating” value is reported as “A (50-100)”.

`O=C(NC1CS(=O)(=O)C1)c1ccc(/C=C/C(c2cc(Cl)c(F)c(Cl)c2)C(F)(F)F)cc1F` (centres unmarked) [AC84]: the “BAW Rating” value is recorded as “A (50-100)”.

In the case of `O=C(NCc1ccc(/C=C/C(c2cc(Cl)c(Cl)c(Cl)c2)C(F)(F)F)cc1Cl)N1CCOCC1` (centres unmarked) [CC34], the “BAW Rating” value is given as “A (50-100)”.

In the case of `O=C(Cc1ccc(Cl)nc1)NC1CCc2cc(/C=C/C(c3cc(Cl)c(F)c(Cl)c3)C(F)(F)F)ccc21` (centres unmarked) [BC9], the “BAW Rating” value is “A (50-100)”.

For `COc1cc(/C=C/C(c2cc(Cl)c(F)c(Cl)c2)C(F)(F)F)ccc1C(=O)NC1CSC1` (centres unmarked) [AC71], the “BAW Rating” value is listed as “A (50-100)”.

Regarding `O=C(CNC(=O)c1ccc(/C=C/C(c2cc(Cl)c(F)c(Cl)c2)C(F)(F)F)cc1F)NCC(F)(F)F` (centres unmarked) [AC68], the “BAW Rating” value is on record as “A (50-100)”.
